From patent US8143307B2, “Benzothiophen-2-carbonylguanidine derivatives, preparation thereof, and pharmaceutical composition containing the same” (Korea Research Institute of Chemical Technology, priority 2004, dated 2012)
pIC50: −log10 of the molar value.

Experiments:
Human NHE-1 = biological target: T1, Human NHE-1 (Homo sapiens, UniProt P19634); assay: Inhibitory effect on NHE-1 in PS120/NHE-1 cells (recovery from intracellular acidosis, BCECF fluorescence); assay type: cell-based; settings: human NHE-1 expressed PS120 cells; concentration at which recovery from intracellular acidosis was 50% inhibited
T1 construct: expressed in transfected cells; host or cells: CCL39-derived PS120 cells (PS120/NHE-1)
T1 sequence (P19634 whole entry): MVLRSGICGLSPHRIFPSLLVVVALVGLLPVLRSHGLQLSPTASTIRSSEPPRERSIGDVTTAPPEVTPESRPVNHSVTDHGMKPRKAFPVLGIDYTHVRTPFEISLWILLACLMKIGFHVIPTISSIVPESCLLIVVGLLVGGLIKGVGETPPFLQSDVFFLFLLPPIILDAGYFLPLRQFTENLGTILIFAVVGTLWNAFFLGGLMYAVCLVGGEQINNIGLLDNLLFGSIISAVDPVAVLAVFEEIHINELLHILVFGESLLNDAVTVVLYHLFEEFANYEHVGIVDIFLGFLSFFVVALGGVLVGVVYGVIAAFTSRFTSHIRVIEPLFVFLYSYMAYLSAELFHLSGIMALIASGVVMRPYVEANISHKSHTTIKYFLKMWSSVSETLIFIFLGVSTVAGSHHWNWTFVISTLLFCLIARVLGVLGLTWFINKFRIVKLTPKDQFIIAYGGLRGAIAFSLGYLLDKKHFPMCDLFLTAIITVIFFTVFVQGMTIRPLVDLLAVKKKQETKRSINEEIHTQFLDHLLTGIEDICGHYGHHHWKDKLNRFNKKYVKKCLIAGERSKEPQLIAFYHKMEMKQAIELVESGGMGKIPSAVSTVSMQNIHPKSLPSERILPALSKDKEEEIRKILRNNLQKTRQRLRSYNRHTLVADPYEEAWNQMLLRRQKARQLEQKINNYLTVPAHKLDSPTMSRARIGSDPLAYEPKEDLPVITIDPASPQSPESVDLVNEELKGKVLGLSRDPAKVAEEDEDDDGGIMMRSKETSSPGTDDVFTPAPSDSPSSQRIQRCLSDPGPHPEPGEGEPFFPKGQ

[1] = system: in vivo ischemic rat brain model; assay: Cerebroprotective effect on in vivo ischemic rat brain model; settings: for % Infarct size/hemisphere / TUNEL-Positive Cells (% Right/Left Hemisphere): 60 min ischemia, 24 hours reperfusion
Procedure: In order to examine whether the benzothiophen-2-carbonylguanidine derivatives of the present invention protect the brain from ischemia-reperfusion-induced cerebral injury, the following experiment was conducted.
Male Sparague-Dawley Rats (350±50 g, Samyook Experimental Animal Lab) were anesthetized and intraperitoneally injected with heparine. After ischemia by the occlusion of the right carotid artery for 60 min, reperfusion was performed for 24 hours. Compounds or a vehicle was intravenously injected at 20 min before the occlusion.
After the perfusion for 24 hours, rats were anesthetized with a fatal dose of sodium pentobarbital. The brains were carefully isolated and transected at intervals of 2 mm. The coronary slices thus obtained were stained at 37° C. for 20 min using a 2% 2,3,5-triphenyltetrazolium chloride solution. Stained slices were analyzed for % necrosis area relative to total brain area using an image analyzer (BAS image 1500). Also, the cerebroprotective activity of the compounds against brain edema was expressed as % volume of the left hemisphere relative to that of the ischemic right hemisphere.

[2] = 0.1 mg/kg intravenous 20 min before occlusion
[3] = 0.3 mg/kg intravenous 20 min before occlusion

Compound: CS(=O)(=O)O.N#Cc1cccc2sc(C(=O)N=C(N)N)cc12 [Example 42, (4-Cyanobenzothiophene-2-Carbonyl)Guanidine Methanesulfonate]
- pIC50 (Human NHE-1): 5.69
- % Infarct size/hemisphere [1, 2]: 21.4%
- TUNEL-Positive Cells (% Right/Left Hemisphere) [1, 2]: 111.2%
- % Infarct size/hemisphere [1, 3]: 18.6%
- TUNEL-Positive Cells (% Right/Left Hemisphere) [1, 3]: 107.96%
- ischemia/reperfusion-induced brain infarction and brain edema ([1]; injection doses of both 0.1 mg/kg and 0.3 mg/kg): significantly reduced
